We go through 19 compounds from patent publication US10449208B2, “Antiviral prodrugs of tenofovir” (Merck Sharp & Dohme Corp., priority 2016, dated 2019).

For one data set, the system named is HIV-1 (H9/IIIB strain). Put plainly: Multiple round HIV-1 infection assay (Viking assay) in MT4-GFP cells. The conditions noted are these: MT4-GFP cells infected with HIV-1 H9/IIIB, inhibition of reproductive ratio R0. The class given is cell-based. How it is done:
Assessing Antiviral Potency in a Multiple Round HIV-1 Infection Assay (Viking Assay)
The antiviral activity of the tenofovir prodrugs of the Examples herein was assessed in an assay that measures the rate of replication of HIV in cell culture, termed the Viking assay (Viral KINetics in Green cells) and performed as follows. HIV-1 replication was monitored using MT4-gag-GFP clone D3 (hereafter designated MT4-GFP), which are MT-4 cells modified to harbor a GFP reporter gene, the expression of which is dependent on the HIV-1 expressed proteins tat and rev. Productive infection of an MT4-GFP cell with HIV-1 results in GFP expression approximately 24 h post-infection. MT4-GFP cells were maintained at 37° C./5% CO2/90% relative humidity in RPMI 1640 supplemented with 10% fetal bovine serum, 100 μ/ml penicillin/streptomycin, and 400 μg/ml G418 to maintain the reporter gene. For infections, MT4-GFP cells were placed in the same medium lacking G418 and infected overnight with HIV-1 (H9/IIIB strain) virus at an approximate multiplicity of infection of 0.01 in the same incubation conditions. Cells were then washed and re-suspended in either RPMI 1640 supplemented with 10% or 50% normal human serum (NFIS) at 1.6×10^5 cells/mL (10% NHS or 50% NHS, respectively). Compound plates were prepared by dispensing compounds dissolved in DMSO into wells of 384 well poly-D -lysine-coated plates (0.2 μl/well) using an ECHO acoustic dispenser. Each compound was tested in a 10-point serial 3-fold dilution (typical final concentrations: 8.4 μM-0.42 nM). Controls included no inhibitor (DMSO only) and a combination of three antiviral agents (efavirenz, indinavir, an in-house integrase strand transfer inhibitor at final concentrations of 4 μM each). Cells were added (50 μL/well) to compound plates and the infected cells were maintained at 37° C./5% CO2/90% relative humidity.
infected cells were quantified at two time points, ˜48 h and ˜72 h post -infection, by counting the number of green cells in each well using an Acumen eX3 scanner. The increase in the number of green cells over ˜24 h period gives the reproductive ratio, R0, which is typically 5-15 and has been shown experimentally to be in logarithmic phase (data not shown). Inhibition of R0 is calculated for each well, and IC50s determined by non-linear 4-parameter curve fitting.

Data set [1] in a line: Prodrug stability assay in bio-relevant media (FaSSIF with Pancreatin, simulated gastrointestinal tract conditions). Type of data set: in vitro ADME. The conditions noted are these: % parent prodrug remaining at 5 h vs 0 h, 37° C., 0.5 mg/mL Pancreatin in FaSSIF, HPLC area ratio. The protocol: Prodrug Stability Assay in Bio-Relevant Media
The following assay was employed to evaluate the stability of the prodrugs in simulated gastrointestinal tract conditions. Preparation of fasted state simulated intestinal fluid (FaSSIF) using Phares SIF Powder was carried out according to protocols from Phare Drug Delivery AG (Baselland, Switzerland). For sample preparation, 10 μL stock solutions (10 mM) of prodrug substance in DMSO was added to 990 μL of 0.5 mg/mL Pancreatin solution (Fisher CAS#8049-47-6) in FaSSIF. Two samples were prepared for each compound at initial. If the sample was clear solution at the beginning, ran one sample directly as initial by HPLC; if the sample was not clear at starting, diluted the sample by 100% ACN. Put the other sample under 37° C. and observed the sample at 5 h time-point. At 5 h time point, if the sample was clear solution then performed HPLC analysis directly; if it was not clear solution, diluted the sample by 100% ACN and assayed by HPLC. All the samples were vortexed for 3 min and observed before injection. For the diluted samples, the area will be multiplied by a factor when data analysis. The analysis was carried out with an Agilent 1100 series HPLC with autosampler. The column was usually a Poroshell 120 EC -C18, 4.6×50 mm, 2.7 μm. The flow rate was 1.8 mL/min, and the injection volume was 5 or 10 μL. UV detection was in the range 210-400 nm. The mobile phase consisted of solvent A (water plus 10 mM tetrabutylammonium bromide) and solvent B (acetonitrile) with a gradient of 90% solvent A at 0 min changing to 95% solvent B over 6 min, maintained for 1.5 min, then reverting to 90% solvent A over 1.6 min. The area of the parent in prodrug at 5h time point was divided by the area of the parent in prodrug at 0 h time point, to generate the % claimed parent ratio, which are summarized in Table 2 for GI Tract stability.

The mark [2] stands for this setting: Human immunodeficiency virus 1, IIIB, 10% normal human serum, read-out: Viking, IC50 (10% NHS).
Where [3] appears, read: Human immunodeficiency virus 1, IIIB, 50% normal human serum, read-out: Viking, IC50 (50% NHS).
Setting [4] is: 50% normal human serum, read-out: Viking, IC50 (50% NHS).
[5] abbreviates: 10% normal human serum, read-out: Viking, IC50 (10% NHS).

Where two headings read alike, the source gives them in different places.

One may read the IC50 as the concentration that inhibits the measured activity by half. In the case of `CC(C)OC(=O)COP(=O)(CO[C@H](C)Cn1cnc2c(N)ncnc21)NC1(C(=O)OC(C)C)CCCCC1` (stereo partly drawn) [Example 51, Isopropyl 1-((((((R)-1-(6-amino-9H-purin-9-yl)propan-2-yl)oxy)methyl)(2-isopropoxy-2-oxoethoxy)phosphoryl)amino) cyclohexane-1-carboxylate], the IC50 came to 9.8 nM in the data set on HIV-1 (H9/IIIB strain) (setting [2]) and 24.9 nM in the data set with HIV-1 (H9/IIIB strain) (setting [3]). Besides, the “GI Tract stability” value in data set [1] was 99.70%.

For `CC(C)OC(=O)COP(=O)(CO[C@H](C)Cn1cnc2c(N)ncnc21)NC(C)(C)C(=O)OC(C)C` (single isomer, unassigned) [Example 3A], the results for the IC50 with HIV-1 (H9/IIIB strain) (setting [2]) and in the data set with HIV-1 (H9/IIIB strain) (setting [4]) were 36.6 nM and 121 nM, respectively. In addition, the “GI Tract stability” value in data set [1] was 96.63%.

Turning to `CC(C)OC(=O)COP(=O)(CO[C@H](C)Cn1cnc2c(N)ncnc21)NC1(C(=O)OC(C)C)CCC1` (stereo partly drawn) [Example 49, Isopropyl 1-((((((R)-1-(6-amino-9H-purin-9-yl)propan-2-yl)oxy)methyl)(2-isopropoxy-2-oxoethoxy)phosphoryl)amino) cyclobutane-1-carboxylate], the IC50 came to 19.6 nM in the data set on HIV-1 (H9/IIIB strain) (setting [2]) and 37 nM with HIV-1 (H9/IIIB strain) (setting [3]). For the same compound, the “GI Tract stability” value in data set [1] is 100.50%.

Regarding `CC(C)OC(=O)[C@H](C)OP(=O)(CO[C@H](C)Cn1cnc2c(N)ncnc21)NC(C)(C)C(=O)OCc1ccccc1` (stereo partly drawn) [Example 41, Benzyl 2-((((((R)-1-(6-amino-9H-purin-9-yl)propan-2-yl)oxy)methyl)(((S)-1-isopropoxy-1-oxopropan-2-yl)oxy)phosphoryl)amino)-2-methylpropanoate], the IC50 with HIV-1 (H9/IIIB strain) (setting [2]) was determined as 2.87 nM; in the data set on HIV-1 (H9/IIIB strain) (setting [3]), 12.5 nM. In data set [1], the “GI Tract stability” value was 58.50%.

For `CCCCCOC(=O)C(C)(C)NP(=O)(CO[C@H](C)Cn1cnc2c(N)ncnc21)O[C@@H](C)C(=O)OC(C)C` (single isomer, unassigned) [Example 2A], the IC50 in the data set on HIV-1 (H9/IIIB strain) (setting [5]) came out at 4.05 nM; with HIV-1 (H9/IIIB strain) (setting [4]), 22.1 nM. Moreover, the “GI Tract stability” value in data set [1] is 61.61%.

In the case of `CCCOC(=O)C(C)(C)NP(=O)(CO[C@H](C)Cn1cnc2c(N)ncnc21)O[C@@H](C)C(=O)OC(C)C` (stereo partly drawn) [Example 22, Propyl 2-((((((R)-1-(6-amino-9H-purin-9-yl)propan-2-yl)oxy)methyl)(((S)-1-isopropoxy-1-oxopropan-2-yl)oxy)phosphoryl)amino)-2-methylpropanoate], the IC50 in the data set on HIV-1 (H9/IIIB strain) (setting [2]) worked out at 4.65 nM; with HIV-1 (H9/IIIB strain) (setting [3]), 17.7 nM. In addition, the “GI Tract stability” value in data set [1] is listed as 79.24%.

For the compound `CCCCCOC(=O)COP(=O)(CO[C@H](C)Cn1cnc2c(N)ncnc21)NC(C)(C)C(=O)OC(C)C` (single isomer, unassigned) [Example 8A], the IC50 is 6.76 nM in the data set with HIV-1 (H9/IIIB strain) (setting [5]) and 27 nM with HIV-1 (H9/IIIB strain) (setting [4]). In data set [1], the “GI Tract stability” value was 94.11%.

In the case of `CCCCCOC(=O)COP(=O)(CO[C@H](C)Cn1cnc2c(N)ncnc21)NC(C)(C)C(=O)OC(C)C` (single isomer, unassigned) [Example 8B], the figures for the IC50 with HIV-1 (H9/IIIB strain) (setting [5]) and in the data set on HIV-1 (H9/IIIB strain) (setting [4]) were 22.7 nM and 161 nM, respectively. For the same compound, the “GI Tract stability” value in data set [1] is 71.6%.

Turning to `CC(C)OC(=O)[C@H](C)OP(=O)(CO[C@H](C)Cn1cnc2c(N)ncnc21)NC(C)(C)C(=O)OC(C)C` (single isomer, unassigned) [Example 1A], the IC50 is 14.7 nM with HIV-1 (H9/IIIB strain) (setting [2]) and 61.1 nM with HIV-1 (H9/IIIB strain) (setting [4]). For the same compound, in data set [1], the “GI Tract stability” value is 85.74%.

`CC(C)OC(=O)[C@H](C)OP(=O)(CO[C@H](C)Cn1cnc2c(N)ncnc21)NC(C)(C)C(=O)OC(C)C` (single isomer, unassigned) [Example 1B]: the IC50 in the data set on HIV-1 (H9/IIIB strain) (setting [5]) is 7.43 nM; in the data set on HIV-1 (H9/IIIB strain) (setting [4]), 12.1 nM. Besides, in data set [1], the “GI Tract stability” value was 99.82%.

Consider `CCCOC(=O)C(C)(C)NP(=O)(CO[C@H](C)Cn1cnc2c(N)ncnc21)OCC(=O)OC1CCCC1` (stereo partly drawn) [Example 38, Propyl 2-((((((R)-1-(6-amino-9H-purin-9-yl)propan-2-yl)oxy)methyl)(2-(cyclopentyloxy)-2-oxoethoxy)phosphoryl)amino)-2-methylpropanoate], for which the IC50 was determined as 2.68 nM in the data set with HIV-1 (H9/IIIB strain) (setting [2]) and 6.26 nM in the data set on HIV-1 (H9/IIIB strain) (setting [3]). Besides, the “GI Tract stability” value in data set [1] is 96.64%.

Regarding `CCCCCOC(=O)C(C)(C)NP(=O)(CO[C@H](C)Cn1cnc2c(N)ncnc21)O[C@@H](C)C(=O)OC1CCCC1` (single isomer, unassigned) [Example 19B], the IC50 with HIV-1 (H9/IIIB strain) (setting [5]) came to 3.01 nM; in the data set on HIV-1 (H9/IIIB strain) (setting [4]), 9.93 nM. Moreover, in data set [1], the “GI Tract stability” value was 100.00%.

Take `CCCCOC(=O)C(C)(C)NP(=O)(CO[C@H](C)Cn1cnc2c(N)ncnc21)O[C@@H](C)C(=O)OC(C)C` (stereo partly drawn) [Example 25, Butyl 2-((((((R)-1-(6-amino-9H-purin-9-yl)propan-2-yl)oxy)methyl)(((S)-1-isopropoxy-1-oxopropan-2-yl)oxy)phosphoryl)amino)-2-methylpropanoate]: the IC50 in the data set on HIV-1 (H9/IIIB strain) (setting [2]) worked out at 2.44 nM; in the data set on HIV-1 (H9/IIIB strain) (setting [3]), 10.5 nM. In addition, the “GI Tract stability” value in data set [1] was 79.61%.

On to `CC(C)OC(=O)COP(=O)(CO[C@H](C)Cn1cnc2c(N)ncnc21)NC(C)(C)C(=O)OC(C)C` (single isomer, unassigned) [Example 3B], for which the IC50 was determined as 29.1 nM in the data set with HIV-1 (H9/IIIB strain) (setting [5]) and 47.9 nM with HIV-1 (H9/IIIB strain) (setting [4]). Further, the “GI Tract stability” value in data set [1] is reported as 95.71%.

Turning to `CCCCCOC(=O)C(C)(C)NP(=O)(CO[C@H](C)Cn1cnc2c(N)ncnc21)O[C@@H](C)C(=O)OC(C)C` (single isomer, unassigned) [Example 2B], the results for the IC50 with HIV-1 (H9/IIIB strain) (setting [5]) and with HIV-1 (H9/IIIB strain) (setting [4]) were 18.2 nM and 70.9 nM, respectively. In data set [1], the “GI Tract stability” value is reported as 91.95%.

As to `CCCCCCOC(=O)C(C)(C)NP(=O)(CO[C@H](C)Cn1cnc2c(N)ncnc21)OCC(=O)OC(C)C` (single isomer, unassigned) [Example 6B], the IC50 in the data set on HIV-1 (H9/IIIB strain) (setting [5]) came out at 2.14 nM; in the data set on HIV-1 (H9/IIIB strain) (setting [4]), 7.99 nM. For the same compound, the “GI Tract stability” value in data set [1] is reported as 73.16%.

Regarding `CCCCCCOC(=O)C(C)(C)NP(=O)(CO[C@H](C)Cn1cnc2c(N)ncnc21)OCC(=O)OC(C)C` (single isomer, unassigned) [Example 6A], the IC50 in the data set with HIV-1 (H9/IIIB strain) (setting [2]) worked out at 3.14 nM; in the data set with HIV-1 (H9/IIIB strain) (setting [3]), 15.2 nM. The “GI Tract stability” value in data set [1] was 95.97%.

As to `CCCCCCOC(=O)C(C)(C)NP(=O)(CO[C@H](C)Cn1cnc2c(N)ncnc21)O[C@@H](C)C(=O)OC(C)C` (single isomer, unassigned) [Example 7A], the IC50 in the data set on HIV-1 (H9/IIIB strain) (setting [5]) came out at 5.03 nM; with HIV-1 (H9/IIIB strain) (setting [4]) it was 21 nM. Also, the “GI Tract stability” value in data set [1] is on record as 15.36%.

With `CCCCCCOC(=O)C(C)(C)NP(=O)(CO[C@H](C)Cn1cnc2c(N)ncnc21)O[C@@H](Cc1ccccc1)C(=O)OC(C)C` (stereo partly drawn) [Example 33, Hexyl 2-((((((R)-1-(6-amino-9H-purin-9-yl)propan-2-yl)oxy)methyl)(((S)-1-isopropoxy-1-oxo-3-phenylpropan-2-yl)oxy)phosphoryl)amino)-2-methylpropanoate], the values for the IC50 with HIV-1 (H9/IIIB strain) (setting [2]) and in the data set with HIV-1 (H9/IIIB strain) (setting [3]) were 1.69 nM and 5.06 nM, respectively. Moreover, in data set [1], the “GI Tract stability” value is recorded as 26.96%.
